This note sets out measurements from PMC5932348, “Identification and Characterization of c-di-GMP Metabolic Enzymes of Leptospira interrogans and c-di-GMP Fluctuations After Thermal Shift and Infection” (Frontiers in Microbiology, 2018).

Common to all, as to assay: RP-HPLC product detection, […] nm
Holding throughout (type): biochemical

The target of one test is T1, LA2528 (Leptospira interrogans, UniProt Q8F383).
T1 construct: gene pleD; full-length REC-GGDEF protein, pET-28a or pET-32a, E. coli BL21(DE3), Ni-NTA
T1 sequence (Q8F383 entry or part of it): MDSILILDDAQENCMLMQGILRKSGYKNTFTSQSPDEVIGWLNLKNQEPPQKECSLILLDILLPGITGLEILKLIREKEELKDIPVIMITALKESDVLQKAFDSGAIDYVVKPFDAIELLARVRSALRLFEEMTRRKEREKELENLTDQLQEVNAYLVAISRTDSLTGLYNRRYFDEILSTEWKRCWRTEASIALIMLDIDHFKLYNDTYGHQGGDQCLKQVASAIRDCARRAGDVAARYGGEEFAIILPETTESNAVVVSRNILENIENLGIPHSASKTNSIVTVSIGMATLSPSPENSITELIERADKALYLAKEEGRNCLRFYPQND
To be noted: 100 uM GTP; pH 7.8; 10 mM MgCl2; 28 C, 1 h; product c-di-GMP.

A further test addresses T2, LA1483 (Leptospira interrogans, UniProt Q8F629).
T2 construct: gene LA_1483; full-length GAF-GGDEF protein, pET-28a or pET-32a, E. coli BL21(DE3), Ni-NTA
To be noted: 100 uM GTP; pH 7.8; 10 mM MgCl2; 28 C, 1 h; product c-di-GMP.

The target in a further test is T3, LA2383 (Leptospira interrogans, UniProt Q8F3L8).
T3 construct: gene LA_2383; HD-GYP protein lacking the conserved HD residues, pET-28a or pET-32a, E. coli BL21(DE3), Ni-NTA
T3 sequence (Q8F3L8 entry or part of it): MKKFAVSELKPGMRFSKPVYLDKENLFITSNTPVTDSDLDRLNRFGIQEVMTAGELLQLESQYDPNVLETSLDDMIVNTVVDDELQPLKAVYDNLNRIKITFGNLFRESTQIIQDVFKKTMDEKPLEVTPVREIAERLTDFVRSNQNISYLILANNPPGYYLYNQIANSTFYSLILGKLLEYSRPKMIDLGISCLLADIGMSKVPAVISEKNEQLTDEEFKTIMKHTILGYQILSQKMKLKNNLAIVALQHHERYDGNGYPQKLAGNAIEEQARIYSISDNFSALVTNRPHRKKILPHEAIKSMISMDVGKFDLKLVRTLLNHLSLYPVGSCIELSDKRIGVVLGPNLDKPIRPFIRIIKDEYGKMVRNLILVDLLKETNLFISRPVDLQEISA
To be noted: 10 uM substrate; pH 8.5; 5 mM MgCl2; 10 mM MnCl2; 28 C, 1 h.

T2 sequence (Q8F629 entry or part of it): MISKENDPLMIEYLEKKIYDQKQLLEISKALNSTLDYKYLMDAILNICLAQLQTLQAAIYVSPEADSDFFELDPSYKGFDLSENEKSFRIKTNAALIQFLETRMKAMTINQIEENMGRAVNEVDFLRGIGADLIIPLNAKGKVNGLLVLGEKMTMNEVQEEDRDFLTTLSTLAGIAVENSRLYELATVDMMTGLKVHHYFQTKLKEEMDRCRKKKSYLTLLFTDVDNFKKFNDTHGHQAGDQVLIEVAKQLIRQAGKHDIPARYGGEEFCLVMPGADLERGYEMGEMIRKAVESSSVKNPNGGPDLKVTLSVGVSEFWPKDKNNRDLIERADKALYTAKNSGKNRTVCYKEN

As to `Nc1nc2c(ncn2[C@@H]2O[C@H](COP(=O)(O)OP(=O)(O)OP(=O)(O)O)[C@@H](O)[C@H]2O)c(=O)[nH]1` [GTP], the “RP-HPLC product detection, 254 nm” value on LA2528 and on LA1483 was “they are able to utilize GTP to produce c-di-GMP” in each case.

For the compound `Nc1nc2c(ncn2[C@@H]2O[C@@H]3COP(=O)(O)O[C@H]4[C@@H](O)[C@H](n5cnc6c(=O)[nH]c(N)nc65)O[C@@H]4COP(=O)(O)O[C@H]3[C@H]2O)c(=O)[nH]1` [c-di-GMP], the “RP-HPLC product detection, 254 nm” value at LA2383 is “LA2383 was able to hydrolyze both c-di-GMP and pGpG in vitro and produce GMP”. Regarding `Nc1nc2c(ncn2[C@@H]2O[C@H](COP(=O)(O)O[C@H]3[C@@H](O)[C@H](n4cnc5c(=O)[nH]c(N)nc54)O[C@@H]3COP(=O)(O)O)[C@@H](O)[C@H]2O)c(=O)[nH]1` [pGpG], on LA2383, the “RP-HPLC product detection, 254 nm” value was “LA2383 was able to hydrolyze both c-di-GMP and pGpG in vitro and produce GMP”.
